Columns and labels:
human CB2 receptor = target: T1, human CB2 receptor (Homo sapiens, UniProt P34972); test: CB2 receptor affinity ([3H]-CP-55,940 displacement, HEK cell membranes); assay type: binding; settings: displacement of radioligand [3H]-CP-55,940
T1 construct: expressed in transfected cells; host or cells: human embryonic kidney (HEK) cells, Semliki Forest Virus system, membrane preparations
Experimental: (§1) The affinity of the compounds of the invention for cannabinoid CB2 receptors was determined using membrane preparations of human embryonic kidney (HEK) cells in which the human CB2 receptor is transiently transfected using a Semliki Forest Virus system in conjunction with [^3H]-CP-55,940 as radioligand. After incubation of freshly prepared cell membrane preparation with the [^3H]-ligand, with or without addition of compounds of the invention, separation of bound and free ligand was performed by filtration over glass fiber filters. Radioactivity on the filter was measured by scintillation counting.
(§2) The ability of the compounds to displace the radioligand [^3H]-CP-55,940 was measured at a concentration of 10 μM and values provided as [% inhibition @ 10 μM] both for the CB1 and CB2 receptor assay, The lower % inhibition is, the lower the likelihood of side effects based on CB1 or CB2 receptor inhibition is.

human CB1 receptor = target: T2, human CB1 receptor (Homo sapiens, UniProt P21554); test: CB1 receptor affinity ([3H]-CP-55,940 displacement, HEK cell membranes); assay type: binding; settings: displacement of radioligand [3H]-CP-55,940
T2 construct: expressed in transfected cells; host or cells: human embryonic kidney (HEK) cells, Semliki Forest Virus system, membrane preparations
Experimental: as §1, with “cannabinoid” for “cannabinoid CB2”, “CB1” for “CB2”, “[3H]-CP-55,940” for “[^3H]-CP-55,940”
as §2

ABCA1 protein = test: Detection of upregulation of ABCA1 protein in cells (ApoA-I binding, high content image analysis); assay type: cell-based; settings: THP-1 macrophage cells; for % increase of ABCA1 at 3 μM: 24 hrs with compound; for EC50: ABCA1 protein increasing efficacy
Experimental: The ability of compounds of the invention to increase the level of ABCA1 protein is determined in replicate cultures of THP-1 macrophage cells in 96-well microplates. Cells are plated at an initial density of 100,000 cells/well in 100 μl medium and differentiated to adherent macrophages with the addition of PMA (100 nM) for 68 hrs in 10% fetal bovine serum, 3 μl/L of b-mercaptoethanol, RPMI-1640 medium. Then, cells are incubated with RPMI-1640 medium containing 1% FCS, 25 μg/ml acetylated LDL, for 24 hours at 37°. Following incubation with acetylated LDL, cells are washed twice with 50 μl PBS and incubated with 100 μl of RPMI-1640 medium containing the compound of interest solubilized in DMSO for an additional 24 hrs. The final DMSO concentration in presence of cells is maintained at 0.5%. ApoA-I binding assay using High Content Image Analysis is initiated by replacing with fresh medium, RPMI without Phenol Red, 0.2% BSA containing AlexaFluor®647 labeled ApoA-I for 2 h/37° C./5% CO2. Then, cells are fixed with 4% Formaldehyde inPBS (15 min, RT). Following Nuclei are stained with Hoechst solution (3 μM PBS) and Cytoplasm with Cell Mask Blue (2 μg/ml PBS), 15 min, RT. Finally the stained cells are fixed with a second round of formaldehyde treatment. Fixed stained cells are washed and kept in PBS at 4° C. and can be read immediately until one month after preparation.
The Alexa Fluor 647-labeled Apolipoprotein A-I (20 nM) was prepared as follows: Human recombinant Apolipoprotein A-I (ApoA-I) was exchanged to a buffer of 0.02 M NaHCO3 at pH 8.2 on an NAP desalting column (GE Healthcare) and brought to a concentration to 40 μM (1.13 mg/ml) by adjustment with the same buffer. The ApoA-I was fluorescently labeled by incubation with Alexa Fluor carboxylic acid succimidyl ester. (Alexa Fluor 647, Invitrogen A-20006) at a 2:1 molar ratio (Alexa to ApoA-I) for 1 h under shaking at RT. The remaining unconjugated label was removed by buffer exchange to 0.02M NaHCO3 at pH 8.2.
Imaging and data collection were performed on an OPERA confocal microplate imaging reader using a 20× water immersion objective and UV360 or 405 laser to identify the cell nuclei and a 635 laser to identify the fluorescent ApoA-I. Eight fields of view are captured per well. Image capture and analysis was performed with the Acapella software. Background fluorescence detected in control wells without ApoA-I was subtracted.
Using XLfit3 program (ID Business Solutions Ltd. UK), the model 205 for Dose Response One Site is used to calculate the EC50 values. The compounds of the present invention increase the level of ABCA1 protein by more than 45% at a concentration of 3 μM. […] Even more preferably, the compounds of the present invention have EC50 values in a range of 0.1 μM to 3 μM.

T2 sequence (P21554 whole entry): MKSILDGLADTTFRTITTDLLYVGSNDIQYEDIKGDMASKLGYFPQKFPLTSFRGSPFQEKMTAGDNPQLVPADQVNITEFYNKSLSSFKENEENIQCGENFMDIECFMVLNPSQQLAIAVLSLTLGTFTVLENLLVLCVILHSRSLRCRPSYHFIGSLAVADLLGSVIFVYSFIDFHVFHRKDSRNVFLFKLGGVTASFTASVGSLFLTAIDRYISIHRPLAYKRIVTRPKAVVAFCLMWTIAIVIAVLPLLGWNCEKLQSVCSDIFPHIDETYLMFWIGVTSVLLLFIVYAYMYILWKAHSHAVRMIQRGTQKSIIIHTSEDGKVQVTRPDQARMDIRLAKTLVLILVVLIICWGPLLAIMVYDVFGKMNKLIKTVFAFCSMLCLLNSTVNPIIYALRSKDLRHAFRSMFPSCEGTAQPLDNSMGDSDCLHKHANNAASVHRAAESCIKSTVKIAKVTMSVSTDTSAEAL
T1 sequence (P34972 whole entry): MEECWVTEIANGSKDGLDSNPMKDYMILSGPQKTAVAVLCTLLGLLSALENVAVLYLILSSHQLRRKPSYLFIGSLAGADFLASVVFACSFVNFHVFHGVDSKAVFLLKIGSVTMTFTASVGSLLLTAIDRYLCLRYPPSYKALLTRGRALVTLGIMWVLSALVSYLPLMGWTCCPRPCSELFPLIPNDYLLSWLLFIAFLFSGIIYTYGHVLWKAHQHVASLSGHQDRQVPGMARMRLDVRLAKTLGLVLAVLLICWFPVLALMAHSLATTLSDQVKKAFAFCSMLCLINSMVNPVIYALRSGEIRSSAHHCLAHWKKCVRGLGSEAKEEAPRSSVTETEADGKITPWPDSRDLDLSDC

| SMILES | inhibition at 10 µM (human CB2 receptor) [%] | inhibition at 10 µM (human CB1 receptor) [%] | % increase of ABCA1 at 3 μM (ABCA1 protein) [% @ 3 μM] | EC50 (ABCA1 protein) [µM] |
| --- | --- | --- | --- | --- |
| O=C(Nc1cnc(OCC(F)(F)F)c(-c2ccc(Cl)cc2)c1)c1ccco1 [Example 66, N-(5-(4-chlorophenyl)-6-(2,2,2-trifluoroethoxy)pyridin-3-yl)furan-2-carboxamide] | 5 | 30 | >45 | – |
| Cc1cc(C(=O)Nc2cnc(OCC(F)(F)F)c(-c3ccc(Cl)cc3)c2)n(C)n1 [Example 13, 2,5-dimethyl-2H-pyrazole-3-carboxylic acid[5-(4-chloro-phenyl)-6-(2,2,2-trifluoro-ethoxy)-pyridin-3-yl]-amide] | 3 | 16 | >45 | – |
| O=C(Nc1cnc(OC2CCC2)c(-c2ccc(Cl)cc2)n1)c1cncnc1 [Example 51, N-(6-(4-chlorophenyl)-5-cyclobutoxypyrazin-2-yl)pyrimidine-5-carboxamide] | 6 | 48 | >45 | – |
| O=C(Nc1cnc(OCC(F)(F)F)c(-c2ccc(Cl)cc2)c1)c1ccccc1O [Example 60, N-(5-(4-chlorophenyl)-6-(2,2,2-trifluoroethoxy)pyridin-3-yl)-2-hydroxy-benzamide] | -2 | 38 | >45 | – |
| Cn1nccc1C(=O)Nc1cnc(OCC(F)(F)F)c(-c2ccc(Cl)cc2)c1 [Example 20, 1-methyl-1H-pyrazole-5-carboxylic acid[5-(4-chloro-phenyl)-6-(2,2,2-trifluoro-ethoxy)-pyridin-3-yl]-amide] | 9 | 34 | – | 6.4 |
| O=C(Nc1cnc(OCC(F)(F)F)c(-c2ccc(Cl)cc2F)c1)c1cncnc1 [Example 55, N-(5-(4-chloro-2-fluorophenyl)-6-(2,2,2-trifluoroethoxy)pyridin-3-yl)pyrimidine-5-carboxamide] | 4 | 35 | >45 | – |
| O=C(Nc1cnc(OCC(F)(F)F)c(-c2ccc(Cl)cc2)c1)c1ccncc1 [Example 4, N-[5-(4-chloro-phenyl)-6-(2,2,2-trifluoro-ethoxy)-pyridin-3-yl]-isonicotinamide] | 1.9 | 36 | >45 | – |
| O=C(Nc1cnc(OC2CCC2)c(-c2ccc(Cl)cc2)n1)c1cccnc1 [Example 50, N-(6-(4-chlorophenyl)-5-cyclobutoxypyrazin-2-yl)nicotinamide] | -1 | 39 | – | 1.5 |
| Cc1cc(C(=O)Nc2cnc(OCC(F)(F)F)c(-c3ccc(Cl)cc3)c2)n[nH]1 [Example 23, 5-methyl-1H-pyrazole-3-carboxylic acid[5-(4-chloro-phenyl)-6-(2,2,2-trifluoro-ethoxy)-pyridin-3-yl]-amide] | -8 | 12 | – | 0.72 |
| O=C(Nc1cnc(OCC(F)(F)F)c(-c2cccc(Cl)c2)c1)c1cccnc1 [Example 76, N-(5-(3-chlorophenyl)-6-(2,2,2-trifluoroethoxy)pyridin-3-yl)nicotinamide] | 5 | 1 | >45 | – |
| CCc1ccc(-c2cc(NC(=O)c3cncnc3)cnc2OCC(F)(F)F)cc1 [Example 56, N-(5-(4-ethylphenyl)-6-(2,2,2-trifluoroethoxy)pyridin-3-yl)pyrimidine-5-carboxamide] | 0 | 35 | >45 | – |
| CC(=O)Nc1cnc(OCC2CC2)c(-c2ccc(Cl)cc2)c1 [Example 9, N-[5-(4-chloro-phenyl)-6-cyclopropylmethoxy-pyridin-3-yl]-acetamide] | 9.6 | 24 | >45 | – |
| O=C(Nc1cnc(OCC(F)(F)F)c(-c2ccc(Cl)cc2)c1)c1ccno1 [Example 30, 5-isoxazolecarboxylic acid[5-(4-chloro-phenyl)-6-(2,2,2-trifluoro-ethoxy)-pyridin-3-yl]-amide] | -4 | 27 | – | 3.86 |
| Cc1cc(-c2cc(NC(=O)c3cncc(C#N)c3)cnc2OCC(F)(F)F)ccc1Cl [Example 61, N-(5-(4-chloro-3-methylphenyl)-6-(2,2,2-trifluoroethoxy)pyridin-3-yl)-5-cyanonicotinamide] | 12 | 17 | >45 | – |
| CO[C@H](C)C(=O)Nc1cnc(OCC(F)(F)F)c(-c2ccc(Cl)cc2)c1 [Example 88, (+)-N-(5-(4-chlorophenyl)-6-(2,2,2-trifluoroethoxy)pyridin-3-yl)-2-methoxypropanamide] | 16 | 41 | >45 | – |
| COc1cncc(C(=O)Nc2cnc(OCC(F)(F)F)c(-c3ccc(Cl)cc3)c2)c1 [Example 77, N-(5-(4-chlorophenyl)-6-(2,2,2-trifluoroethoxy)pyridin-3-yl)-5-methoxynicotinamide] | 16 | 33 | – | 0.72 |
| CNC(=O)c1cncc(C(=O)Nc2cnc(OCC(F)(F)F)c(-c3ccc(Cl)cc3)c2)c1 [Example 87, N3-(5-(4-chlorophenyl)-6-(2,2,2-trifluoroethoxy)pyridin-3-yl)-N5-methylpyridine-3,5-dicarboxamide] | -15 | 19 | >45 | – |
| O=C(Nc1cnc(OCC(F)(F)F)c(-c2ccc(Cl)c(F)c2)c1)c1cncnc1 [Example 53, N-(5-(4-chloro-3-fluorophenyl)-6-(2,2,2-trifluoroethoxy)pyridin-3-yl)pyrimidine-5-carboxamide] | 0 | 21 | >45 | – |
| O=C(Nc1cnc(OCC(F)(F)F)c(-c2ccc(Cl)cc2)c1)c1nccs1 [Example 35, 2-thiazolecarboxylic acid[5-(4-chloro-phenyl)-6-(2,2,2-trifluoro-ethoxy)-pyridin-3-yl]-amide] | -3 | 18 | >45 | – |
| O=C(Nc1cnc(OC2CCC2)c(-c2ccc(Cl)cc2)c1)c1cnccn1 [Example 78, N-(5-(4-chlorophenyl)-6-cyclobutoxypyridin-3-yl)pyrazine-2-carboxamide] | 26 | 25 | >45 | – |
| O=C(Nc1cnc(OCC(F)(F)F)c(-c2ccc(Cl)c(F)c2)c1)c1cccnn1 [Example 63, N-(5-(4-chloro-3-fluorophenyl)-6-(2,2,2-trifluoroethoxy)pyridin-3-yl)pyridazine-3-carboxamide] | -1 | 5 | – | 0.68 |

From patent US8410107B2, “N-pyridin-3-yl or N-pyrazin-2-yl carboxamides” (Hoffmann-La Roche Inc., priority 2010, dated 2013)
